The results in this text go back to patent US3998790A, “Phenoxy-hydroxypropylamines, their preparation, and method and pharmaceutical preparations for treating cardiovascular diseases” (priority 1974, dated 1976).

As usually defined, the ED50 is the midpoint of the dose-response relation. The LD50 is the dose expected to kill half of the subjects tested.

Like-named read-outs stand apart in the source and are kept apart here.

For series [1], the target named is T1, peripheral vascular β-receptors (Felis catus, UniProt Q9TST5).
T1 construct: from tissue; host or cells: vascular bed of the perfused leg of the anaesthetized, reserpinized cat, paw excluded (in vivo)
Put plainly: β-blocking activity on peripheral vascular resistance (vasodilator response to isoprenaline) in reserpinized cats. Type of series: in vivo, cat. The note with it: read-out: β-blockade peripheral vascular resistance ED50. The protocol: (§1) The acute LD50 in mice was evaluated. Alprenolol was used as a reference substance.
(§2) Cats weighing between 1.8 and 2.8 kg were anaesthetized with 30 mg/kg pentobarbital sodium, intraperitoneally. The cats had been pretreated with reserpine, 5 mg/kg intramuscular, about 18 hours before the experiment. Bilateral vagotomy was performed before the start of the experiment.
(§3) The heart rate was recorded on an Offner cardiotachometer triggered by the EKG-complex. Mean arterial blood pressure was recorded from a carotid artery. The peripheral resistance was measured in one of the legs of the cat in the following way: The femoral artery was opened in the inguinal region and the leg was perfused by blood delivered through a sigma motor pump at constant rate. The flow resistance (the pressure) was recorded via a pressure transudcer connected to the catheter distally to the pump. The paw was excluded from the circulation by a tight ligature Intravenously injected isoprenaline increased the heart rate and reduced the perfusion pressure. An isoprenaline dose giving 70-80% of the maximal chronotropic response was determined. This dose (usually 0.1 μg/kg) was then repeated with 20 minute intervals. Ten minutes before each isoprenaline injection, the tested substances were administered intravenously for two minutes, starting with a dose of 0.01 mg/kg and increasing each subsequent dose fourfold. The intrinsic effects of the test substances were determined. The dose producing 50% blockade of the isoprenaline responses was evaluated from the plotted log dose-percent blockade diagrams.

In another series the target is T2, β-receptors of the heart (Felis catus, UniProt Q9TST6).
T2 construct: Intravenously injected isoprenaline increased the heart rate and reduced the perfusion pressure; from tissue; host or cells: heart of the intact anaesthetized, reserpinized, vagotomized cat (in vivo)
The series is described as follows: β-blocking activity on heart rate (isoprenaline response) in reserpinized cats. It is filed as in vivo, cat. The note with it: read-out: β-blockade Heart rate ED50. The procedure:
as §1, §2, §3

The nature of another series: in vivo. The note with it: mouse, ip. The procedure: (§4) Compounds prepared according to the examples were evaluated for intrinsic activity and blocking effect on heart rate and: peripheral vasodilator response to isoprenaline in the cat. The acute LD50 in mice was evaluated.
In the next series the test system is heart rate. Put plainly: intrinsic stimulating activity on heart rate in reserpinized cats. As to conditions: Felis catus, read-out: Intrinsic activity % of maximal isoprenaline heart rate. It is filed as in vivo, cat. The procedure: as §4, §2
as §3, with “The paw was excluded from the circulation by a tight ligature Intravenously injected isoprenaline increased the heart rate and reduced the perfusion pressure.” left out, “This dose (usually 0.1 μg/kg) was then repeated with 20 minute intervals.” left out

The mark [2] stands for this setting: reserpinized cat, intravenous, dose producing 50% blockade of isoprenaline response.
The mark [3] stands for this setting: reserpinized cat, pentobarbital anaesthesia, intravenous.

T2 sequence (Q9TST6 whole entry, the tested form may be a part): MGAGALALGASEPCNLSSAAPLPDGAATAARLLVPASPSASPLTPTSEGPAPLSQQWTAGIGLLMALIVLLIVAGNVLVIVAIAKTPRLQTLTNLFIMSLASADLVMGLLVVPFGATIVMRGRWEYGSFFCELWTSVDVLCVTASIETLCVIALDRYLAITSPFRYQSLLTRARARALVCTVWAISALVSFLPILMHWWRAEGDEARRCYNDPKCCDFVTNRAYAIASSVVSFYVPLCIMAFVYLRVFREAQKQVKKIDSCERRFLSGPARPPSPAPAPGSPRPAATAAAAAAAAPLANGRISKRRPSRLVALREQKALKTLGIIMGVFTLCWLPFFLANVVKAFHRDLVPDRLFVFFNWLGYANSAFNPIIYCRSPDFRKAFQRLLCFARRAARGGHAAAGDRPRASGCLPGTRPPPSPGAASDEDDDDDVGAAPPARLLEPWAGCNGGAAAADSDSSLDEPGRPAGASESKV
T1 sequence (Q9TST5 whole entry, the tested form may be a part): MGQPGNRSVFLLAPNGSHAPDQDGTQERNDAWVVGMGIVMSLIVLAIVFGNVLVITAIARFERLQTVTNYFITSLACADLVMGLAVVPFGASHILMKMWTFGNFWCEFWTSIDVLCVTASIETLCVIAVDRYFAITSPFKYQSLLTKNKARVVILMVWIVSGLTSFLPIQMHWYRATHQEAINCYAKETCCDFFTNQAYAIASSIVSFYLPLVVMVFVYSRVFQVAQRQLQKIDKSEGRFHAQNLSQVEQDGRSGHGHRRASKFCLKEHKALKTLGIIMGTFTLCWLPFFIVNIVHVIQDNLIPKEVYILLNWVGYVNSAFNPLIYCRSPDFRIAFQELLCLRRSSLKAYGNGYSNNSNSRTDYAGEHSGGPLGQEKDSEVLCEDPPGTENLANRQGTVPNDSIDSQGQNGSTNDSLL

On to `CCOC(=O)NCCc1ccc(OCC(O)CNC(C)C)cc1` (centres unmarked), for which the figures for the ED50 (in series [1] (setting [2]); at β-receptors of the heart (setting [2])) were 25 mg/kg and 0.3 mg/kg, respectively. The LD50 in “in vivo” was 200 mg/kg. Further, the Emax with heart rate (iv) worked out at 0%.

With `COC(=O)NCCc1ccc(OCC(O)CNC(C)C)cc1` (centres unmarked) [(no label)], the 50% effective dose (ED50) was determined as 19 mg/kg in series [1] (setting [2]) and 0.4 mg/kg at β-receptors of the heart (setting [2]). Also, in the series “in vivo”, the LD50 was found to be 125 mg/kg. Besides, in the series with heart rate (iv), the Emax was 0%.

For `COCCc1ccc(OCC(O)CNC(C)C)cc1` (stereo not drawn) [Ex. I, 1-isopropylamino-3-[p-(β-methoxyethyl)-phenoxy]-propanol-2], the median effective dose (ED50) in series [1] (cat, iv) was found to be 3 mg/kg; on β-receptors of the heart (cat, iv), 0.4 mg/kg. Also, the LD50 in “in vivo” was 200 mg/kg. For the same molecule, the Emax in the series on heart rate (setting [3]) was determined as 0%.

For `CCOCCc1ccc(OCC(O)CNC(C)C)cc1` (stereo not drawn) [Ex. II, 1-isopropylamino-3-[p-(β-ethoxyethyl)-phenoxy]-propanol-2], the median effective dose (ED50) in series [1] (setting [2]) is 4 mg/kg; on β-receptors of the heart (setting [2]), 0.3 mg/kg. Besides, in “in vivo”, the LD50 was found to be 150 mg/kg. The Emax in the series on heart rate (setting [3]) stood at 0%.

As to `CCOCc1ccc(OCC(O)CNC(C)C)cc1` (centres unmarked) [Ex. III, 1-isopropylamino-3-(p-ethoxymethyl-phenoxy)-propanol-2], the median effective dose (ED50) in series [1] (setting [2]) turned out to be 6 mg/kg; at β-receptors of the heart (setting [2]), 0.4 mg/kg. Besides, in the series “in vivo”, the LD50 is 175 mg/kg. Besides, the Emax with heart rate (setting [3]) is 0%.

In the case of `C=CCc1ccccc1OCC(O)CNC(C)C` (centres unmarked) [alprenolol, reference compound], the ED50 turned out to be 0.05 mg/kg in series [1] (cat, iv) and 0.1 mg/kg on β-receptors of the heart (cat, iv). The Emax in the series with heart rate (setting [3]) was determined as 20%.
